Laboratory results taken from US20220127297A1, “Novel Antibacterial 3"-Derivatives Of 4,6-Disubstituted 2,5-Dideoxystreptamine Aminoglycoside Antibiotics” (AGILeBiotics B.V., priority 2018, published 2022).
Converted amounts (≈) assume the structure as drawn. Like-named read-outs stand apart in the source and are kept apart here.

Key:
[1] = test system: clinical isolates of multidrug-resistant Klebsiella pneumoniae (and ATCC43816); experiment: MIC determination at Fidelta, clinical isolates; type: cell-based
Excerpt: 3.4.2 MIC Determination at Fidelta (Croatia)
Tested reference compounds. Amikacin sulfate (Cat. No. 01693, Chem-Impex), Gentamicin sulfate (Cat. No. G4918, Sigma Aldrich), Ceftazidime Pentahydrate (Cat. No. 1098130, USP), Meropenem (Cat. No. 1392454, USP), Tobramycin (Cat. No. 1667508, USP).
Microbial strains. Klebsiella pneumoniae KP-1919 (abdomen), Klebsiella pneumoniae KP-1935 (urine), Klebsiella pneumoniae KP-1936 (abscess), Klebsiella pneumoniae KP-1937 (blood), Klebsiella pneumoniae KP-1942 (urine), Klebsiella pneumoniae KP-1944 (blood), Klebsiella pneumoniae KP-2027 (tracheal aspirate), Klebsiella pneumoniae KP-2029 (urine), Klebsiella pneumoniae KP-2030 (trachea), Klebsiella pneumoniae KP-2031 (skin), Klebsiella pneumoniae KP-2032 (urine), Klebsiella pneumoniae KP-2033 (urine), Klebsiella pneumoniae KP-2034 (urine), Klebsiella pneumoniae KP-2035 (urine), Klebsiella pneumoniae KP-2036 (urine), Klebsiella pneumoniae KP-2037 (urine), Klebsiella pneumoniae ATCC 43816, Pseudomonas aeruginosa PA-1948 (wound), Pseudomonas aeruginosa PA-1949 (urine), Pseudomonas aeruginosa PA-1950 (sputum), Pseudomonas aeruginosa PA-1952 (wound), Pseudomonas aeruginosa PA-1953 (urine), Pseudomonas aeruginosa PA-1954 (sputum), Pseudomonas aeruginosa PA-1967 (blood), Pseudomonas aeruginosa ATCC27853, Acinetobacter baumannii AB-1931 (urine), Acinetobacter baumannii AB-1932 (urine), Acinetobacter baumannii AB-2017 (bronchial aspirate), Acinetobacter baumannii AB-2018 (skin), Acinetobacter baumannii AB-2019 (bronchial aspirate), Acinetobacter baumannii AB-1964 (blood), Acinetobacter baumannii AB-2025 (skin), Acinetobacter baumannii AB-2026 (skin), Acinetobacter baumannii ATCC17978, methicillin-resistant Staphylococcus aureus MRSA-1995 (liquor), methicillin-resistant Staphylococcus aureus MRSA-1998 (wound), methicillin-resistant Staphylococcus aureus MRSA-1999 (skin), methicillin-resistant Staphylococcus aureus MRSA-2003 (wound), vancomycin-resistant Enterococcus faecium VRE-2005 (urine), vancomycin-resistant Enterococcus faecium VRE-2006 (urine), vancomycin-resistant Enterococcus faecium VRE-2007 (urine), vancomycin-resistant Enterococcus faecium VRE-2008 (urine), vancomycin-resistant Enterococcus faecium VRE-2009 (urine), vancomycin-resistant Enterococcus faecium VRE-2010 (urine), vancomycin-resistant Enterococcus faecium VRE-2011 (rectum), vancomycin-resistant Enterococcus faecium VRE-2012 (rectum), vancomycin-resistant Enterococcus faecium VRE-2013 (rectum).
Culture media and equipment. BBL™ Mueller Hinton Broth (REF 275730, Lot. 7009699, Becton Dickinson); Mueller Hinton Agar 2 (Ref. No. 97580-500G-F, Lot. No. BCBV4646, Sigma); Cellstar, 96-well plates, U-bottom (Cat. No. 650180, Lot. No. E14123EB, Greiner Bio-one); 96-well deep well plate, 1 mL (Cat. No. 278606, Nunc); Incubator (Binder); Laminar flow (Thermo Scientific); BioPhotometer (Eppendorf); DEN-1B (McFarland Densitometer, Biosan); McFarland standards (polymer microparticle suspension, Biosan).
Compound preparation. For testing, 5 mg/mL DMSO solutions of the test compounds and reference antibiotics were used. Out of these DMSO solutions, 43.5 μL was transferred to 1656.5 μL of MH media in a deep well plate. Out of these working solutions 100 μL was transferred to wells in the third column of 96-well plates. Plates are previously filled with 50 μL of MH media in all wells except for the wells in the third column. After compound and antibiotic addition, 50 μL was transferred from the third to the fourth column, then from the fourth to the fifth and so on. In this manner, the compounds and antibiotics were plated in 96-well plate in serial two-fold dilutions giving a final concentration range of 64-0.125 μg/mL.
Inoculum preparation. Designations used for clinical isolates were from Fidelta strain collection bank. Microorganisms used were all revived from skim milk storage at −70° C. by plating them on MH agar plates.

[2] = test system: Klebsiella pneumoniae ATCC 43816; experiment: Murine neutropenic thigh model of infection; type: in vivo, male CD-1 mice; conditions: for Change from vehicle group / Avg. Log CFU/g: SC, BID; for Change from vehicle group: Avg. Log CFU/g thigh vs vehicle; for Avg. Log CFU/g: thigh, 24 hours post infection
Experimental: 4.1 Murine Neutropenic Thigh Model of Infection (Kiebsiella Pneumoniae ATCC 43816)
A comparator antibiotic (meropenem; Cat. No. 1392454, USP) was used during both studies.
During the first study ABX5006 and ABX5020 were tested at a dose of 64 mg/kg (group 5 for ABX5006, group 8 for ABX5020), 16 mg/kg (group 4 for ABX5006, group 7 for ABX5020) and of 4 mg/kg (group 3 for ABX5006, group 6 for ABX5020).
During a second study ABX5026 and ABX5039 were tested at a dose of 4 mg/kg (group 5 for ABX5026, group 8 for ABX5039), 1 mg/kg (group 4 for ABX5026, group 7 for ABX5039) and of 0.25 mg/kg (group 3 for ABX5026, group 6 for ABX5039).
Animals were dosed subcutaneously (10 mL/kg) twice with 8 h interval. […] A CFU count below limit of detection (LOD=1.0×10^2 CFU/mL) was substituted with the value 0 in order to perform statistical analysis.
Inoculum preparation for intramuscular infection. The strain was streaked out onto MH agar.

[3] = Klebsiella pneumoniae, ATCC43816, KP-1919, Abdomen/VIM, ESBL, read-out: MIC 90
[4] = Klebsiella pneumoniae, ATCC43816, KP-1935, Urine/ESBL, NDM, read-out: MIC 90
[5] = Klebsiella pneumoniae, ATCC43816, KP-1936, Abscess/NDM, read-out: MIC 90
[6] = Klebsiella pneumoniae, ATCC43816, KP-1937, Blood/VIM, ESBL, read-out: MIC 90
[7] = Klebsiella pneumoniae, ATCC43816, KP-1942, Urine (catheter)/VIM, read-out: MIC 90
[8] = Klebsiella pneumoniae, ATCC43816, KP-1944, Blood/NDM, read-out: MIC 90
[9] = Klebsiella pneumoniae, ATCC43816, KP-2027, Tracheal aspirate/ESBL, OXA-48, ColR, read-out: MIC 90

N=C(NC[C@@H]1CCCN1)NC1[C@@H](O)C(OC2[C@@H](F)[C@H](O[C@H]3OC(CN)[C@@H](O)CC3N)C(N)C[C@H]2NC(=O)[C@@H](O)CCN)O[C@H](CO)[C@H]1O (stereo partly drawn) [ABX5026, Tobra-AHB-F-Gua (S) pyrrolidine-2-yl-methyl]
MIC90 ([1]; K. pneumoniae ATCC43816 strain): 1 µg/mL (≈ 1.44 µM)
MIC90 [1, 3]: 1 µg/mL (≈ 1.44 µM)
MIC90 [1, 4]: 1 µg/mL (≈ 1.44 µM)
MIC90 [1, 5]: 1 µg/mL (≈ 1.44 µM)
MIC90 [1, 6]: 2 µg/mL (≈ 2.87 µM)
MIC90 [1, 7]: 1 µg/mL (≈ 1.44 µM)
MIC90 [1, 8]: 2 µg/mL (≈ 2.87 µM)
MIC90 [1, 9]: 1 µg/mL (≈ 1.44 µM)
MIC90 ([1]; Klebsiella pneumoniae, ATCC43816, KP-2029, Urine/ESBL, OXA-48, read-out: MIC 90): 0.5 µg/mL (≈ 0.719 µM)
MIC90 ([1]; Klebsiella pneumoniae, ATCC43816, KP-2030, Trachea/ESBL, OXA-48, read-out: MIC 90): 1 µg/mL (≈ 1.44 µM)
MIC90 ([1]; Klebsiella pneumoniae, ATCC43816, KP-2031, Skin/ESBL, OXA-48, read-out: MIC 90): 0.5 µg/mL (≈ 0.719 µM)
MIC90 ([1]; Klebsiella pneumoniae, ATCC43816, KP-2032, Urine/ESBL, OXA-48, read-out: MIC 90): 0.5 µg/mL (≈ 0.719 µM)
MIC90 ([1]; Klebsiella pneumoniae, ATCC43816, KP-2033, Urine/OXA-A8, read-out: MIC 90): 0.5 µg/mL (≈ 0.719 µM)
MIC90 ([1]; Klebsiella pneumoniae, ATCC43816, KP-2034, Urine/ESBL, OXA-48, read-out: MIC 90): 1 µg/mL (≈ 1.44 µM)
MIC90 ([1]; Klebsiella pneumoniae, ATCC43816, KP-2035, Urine/ESBL, OXA-48, read-out: MIC 90): 0.5 µg/mL (≈ 0.719 µM)
MIC90 ([1]; Klebsiella pneumoniae, ATCC43816, KP-2036, Urine/ESBL, read-out: MIC 90): 0.5 µg/mL (≈ 0.719 µM)
MIC90 ([1]; Klebsiella pneumoniae, ATCC43816, KP-2037, Urine/ESBL, OXA-48, read-out: MIC 90): 0.5 µg/mL (≈ 0.719 µM)
Change from vehicle group ([2]; dose 0.25 mg/kg): 1.80
Avg. Log CFU/g ([2]; dose 0.25 mg/kg): 7.98 Log CFU/g
CFU count reduction in comparison to the vehicle control group ([2]; dose 1 mg/kg SC BID): > 6 log 10
Change from vehicle group ([2]; dose 1 mg/kg): 6.44
Avg. Log CFU/g ([2]; dose 1 mg/kg): 3.34 Log CFU/g
Change from vehicle group ([2]; dose 4 mg/kg): 7.56
Avg. Log CFU/g ([2]; dose 4 mg/kg): 2.22 Log CFU/g

N=C(N)NC1[C@@H](O)C(OC2[C@@H](F)[C@H](O[C@H]3OC(CN)[C@@H](O)[C@H](O)C3N)C(N)C[C@H]2NC(=O)[C@@H](O)CCN)O[C@H](CO)[C@H]1O (stereo partly shown) [ABX4006, KanaB-AHB-F-Gua]
MIC90 [1, 3]: 1 µg/mL (≈ 1.59 µM)
MIC90 [1, 4]: 0.5 µg/mL (≈ 0.795 µM)
MIC90 [1, 5]: 0.5 µg/mL (≈ 0.795 µM)
MIC90 [1, 6]: 4 µg/mL (≈ 6.36 µM)
MIC90 [1, 7]: 0.25 µg/mL (≈ 0.398 µM)
MIC90 [1, 8]: 1 µg/mL (≈ 1.59 µM)
MIC90 [1, 9]: 0.5 µg/mL (≈ 0.795 µM)
